Activity calls are given as the source filed them.
Legend:
Assay type in all cases: functional, cell-based
Homo sapiens [1] = species on record: Homo sapiens; experiment: Cytotoxicity against human D283 cells assessed as reduction in cell viability at 2 uM after 48 hrs by SRB assay
Homo sapiens [2] = species on record: Homo sapiens; experiment: Cytotoxicity against human SJCRH30 cells assessed as reduction in cell viability at 2 uM after 48 hrs by SRB assay
TC-32 = experiment: Cytotoxicity against human TC32 cells assessed as reduction in cell viability at 2 uM after 48 hrs by SRB assay
Hep293TT = experiment: Cytotoxicity against human Hep293TT cells assessed as reduction in cell viability at 2 uM after 48 hrs by SRB assay
SK-ES1 = experiment: Cytotoxicity against human SK-ES-1 cells assessed as reduction in cell viability at 2 uM after 48 hrs by SRB assay
A673 = experiment: Cytotoxicity against human A673 cells assessed as reduction in cell viability at 2 uM after 48 hrs by SRB assay

Measured: Activity

CO[C@@H](/C(C)=C/C=C/C(C)=C/c1coc(C)n1)[C@@H](C)[C@@H]1C[C@H](O)[C@H](C(C)=O)/C=C/[C@@H](C)[C@H]2C[C@H](CC(=O)O2)C[C@@H]2O[C@H]2C(=O)O1
inactive: all assays above

CO[C@@H](/C(C)=C/C=C/C(C)=C/c1coc(C)n1)[C@@H](C)[C@@H]1C[C@H](O)[C@@](C)(O)[C@@H](O)/C=C/[C@@H](C)[C@H]2C[C@H](CC(=O)O2)C[C@@H]2O[C@H]2C(=O)O1
inactive: all assays above

CO[C@@H](/C(C)=C/C=C/C(C)=C/c1coc(C)n1)[C@@H](C)[C@@H]1C[C@H](O)[C@@](C)(O)/C=C/[C@H](O)[C@@H](C)[C@H]2C[C@H](CC(=O)O2)C[C@@H]2O[C@H]2C(=O)O1
inactive: all assays above

CO[C@@H](/C(C)=C/C=C/C(C)=C/c1coc(C)n1)[C@@H](C)[C@@H]1C[C@H](O)[C@@](C)(O)[C@H](O)/C=C/[C@@H](C)[C@H]2C[C@H](CC(=O)O2)C[C@@H]2O[C@H]2C(=O)O1
inactive: all assays above

COC(=O)C[C@H]1C[C@@H](O)[C@H](C)[C@@H](O)/C=C/[C@](C)(O)[C@@H](O)C[C@@H]([C@H](C)[C@@H](OC)/C(C)=C/C=C/C(C)=C/c2coc(C)n2)OC(=O)[C@@H]2O[C@H]2C1
inactive: all assays above
